Test results from US20250108139A1, “PEPTIDE UREA DERIVATIVE, PHARMACEUTICAL COMPOSITION CONTAINING PEPTIDE UREA DERIVATIVE, AND APPLICATION OF PEPTIDE UREA DERIVATIVE” (BIVISION PHARMACEUTICALS, INC, priority 2022, published 2025).

Tests used:
[1] = system: 22rv1 tumor-bearing Balb/c Nude mouse; assay: Treatment efficacy in 22RV1 tumor-bearing mouse model; format: in vivo; details: for T/C: 21st day; for Tumor volume, 21st day of group administration: mean ± standard error
Experimental: Balb/c Nude mouse, approximately 6-8 weeks old, were subcutaneously inoculated with 3×10^6 22rv1 cells (in 50% Matrigel, Corning) into the right scapular region. Once the tumors reached the required size for the experiment, the animals were randomly assigned into 11 experimental groups based on tumor volume, with 5 mouse per group. The body weight and tumor size of the animals were measured. On the day of grouping, treatments were administered as follows: control group (normal saline), group 1 (^177Lu-DB-13, 0.15 mCi/mouse), group 2 (^177Lu-DB-13, 0.45 mCi/mouse), group 3 (^177Lu-DB-13, 0.05 mCi/mouse), group 4 (^177Lu-B-11, 0.05 mCi/mouse), group 5 (^177Lu-DB-11, 0.15 mCi/mouse), group 6 (^177Lu-DB-11, 0.45 mCi/mouse), group 7 (^177Lu-PSMA-617, 0.15 mCi/mouse), group 8 (^177Lu-PSMA-617, 0.45 mCi/mouse), group 9 (^177Lu-DB-19, 0.05 mCi/mouse), group 10 (^177Lu-DB-19, 0.15 mCi/mouse), group 11 (^177Lu-DB-19, 0.45 mCi/mouse). After the start of treatment, general health and appearance were observed daily. Body weight and tumor size were measured at each sampling time point. Any abnormal observations during the study were recorded in the raw data.

[2] = target: PSMA-expressing cells (22Rv1) (Homo sapiens (Human), UniProt Q04609); assay: Competitive binding against radiolabeled PSMA-617 ligand on 22Rv1 cells; details: unlabeled compound vs radiolabeled PSMA-617 ligand, on ice 2 hours
Experimental: (1) 22Rv1 cells in the logarithmic growth phase were prepared into a cell suspension, and the cell density was adjusted to 1×10^4 cells/mL. 1 mL of the cell suspension was seeded into each well of a 24-well cell culture plate. The cells were cultured overnight in a 37° C. incubator.
(2) The cell culture medium was aspirated, and the cells were washed once with PBS. Then, 975 μL of additive-free medium was added.
(3) To each well, 25 μL of a fixed concentration of radiolabeled PSMA-617 ligand (final concentration in the medium: 2 μCi/mL) and different concentrations (final concentrations in the medium: 1000 ng/ml, 100 ng/mL, 10 ng/mL, 1 ng/mL, 0.1 ng/mL, 0.01 ng/mL, 0.001 ng/mL, 0 ng/ml) of the unlabeled test blocking compounds DB-18, DB-19, DB-13, E-3 were added.
(4) The cells were incubated on ice for 2 hours.
(5) The cells were washed three times with ice-cold PBS.
(6) The cells were lysed with 0.5 mL of 1 M sodium hydroxide, and washed twice with 0.5 mL PBS. The sodium hydroxide (0.5 mL) and PBS (0.5 mL×2) solutions were collected for uptake counting.

[3] = target: PSMA protein (Homo sapiens (Human), UniProt Q04609); assay: Affinity of DB compounds to PSMA protein using Biacore (Effect Example 3); details: Biacore 8K, 15° C., 1:1 binding model; pKD=−Log KD
Experimental: The affinity of DB compounds to PSMA protein was tested using the Biacore 8K (Cytiva) instrument to detect ligand binding to PSMA protein (Sino Biological). PSMA protein was captured on an SA chip. Before fixing the ligand (flow paths 1 and 2, flow rate of 10 μL/min), PSMA protein (10 μg/mL, flow rate of 5 μL/min, injection time of 600 s) was fixed on flow path 2 using a flow buffer. The sensor surface was adjusted by continuously injecting 1 M NaCl three times in 50 mM NaOH. After each ligand injection, additional cleaning was performed using isopropanol in 1 M NaCl and 50 mM NaOH (flow paths 1 and 2, flow rate of 10 μL/min, injection time of 60 s).
All compounds were dissolved in 100% DMSO and diluted to 10 mM, then further diluted to the appropriate highest concentration in the analysis buffer (PBS, PH 7.4, 1 mM TCEP ([…]), 0.05% P20, 2% DMSO). The analysis was conducted under the following conditions: 15° C. analysis temperature; analysis steps=all set to LMW kinetics; cycle type=single cycle (90 s contact time, 1800 s dissociation time, 30 μL/min flow rate, flow paths 1 and 2); detection in flow=path 2-1. Data evaluation was performed using Biacore Insight Evaluation Software, fitting the data to a 1:1 binding model.
Biacore results are shown in Table 5: pKD=−Log KD, wherein KD is the binding affinity of the compound to PSMA protein measured by Biacore. It is expressed by Kd (M)=Kd (1/s)/Ka (1/Ms). A indicates pKD>8; B indicates 7<pKD<8; C indicates 6<pKD<7; D indicates pKD<6.

[4] = system: PSMA-positive 22rv1 tumor-bearing mouse; assay: 177Lu labeling and animal biodistribution experiment, gamma counter; format: in vivo; details: 177Lu-labeled compound, 24 h after tail vein injection, n = 2
Experimental: Distribution in PSMA-positive tumor-bearing mouse tissues: Tumor-bearing animals (purchased from Shanghai Alamo Pharmaceutical Technology Co., Ltd.) were subcutaneously inoculated with 3×10^6 22rv1 cells (in 50% Matrigel, Corning) into the right shoulder region of 6-9 week old (Balb/c Nude) mouse. Once the tumors had grown to an appropriate size, ^177Lu-radiolabeled DB compounds were injected into the mouse via the tail vein (approximately 1.85 MBq-3.7 MBq/mouse, specific activity: 22423.82 Kbq/μg). After administration, the animals were euthanized using carbon dioxide inhalation at 24 hours. The blood and organs (blood, liver, kidney, muscle, tumor) were collected.
Blood was collected through the abdominal aorta and 100 μL was immediately quantified into designated centrifuge tubes (weighed). After collection, the organs were washed twice with deionized water, dried, placed in pre-weighed tubes, and weighed again to calculate the sample weight. Samples were measured on the day of collection. All blood and tissue samples were measured for radioactivity using a gamma counter. The results are shown in FIGS. 3, 4, 5, 6, 7, and Table 6.

[5] = system: albumin in rat plasma; assay: Plasma protein binding (PPB) test by ultrafiltration; format: in vitro ADME; details: 177Lu-labeled compound
Experimental: The labeled compounds ^177Lu-E-3, 177Lu-DB-13, 177Lu-DB-18, and ^177Lu-DB-19 (1 μCi) were prepared in a reaction solution by adding 50 μL of PBS to achieve a concentration of 20 μCi/mL. 50 μL of the 20 μCi/mL reaction solution was added to 200 μL of plasma, repeated for 3 tubes. The mixture was mixed well and incubated at room temperature for 10 minutes, then added to ultrafiltration tubes and centrifuged at 13000 rpm for 45 minutes. Following this, 50 μL of normal saline was added and the samples were centrifuged again for 15 minutes. The upper chamber and the filtrate were respectively counted for radioactivity.
PPB=[(upper chamber counts−background counts]/(filtrate counts+upper chamber counts−2*background counts)]*100%.

[6] = Determination of Log P (n-octanol/water partition); format: physicochemical; details: 177Lu-labeled compound, mean of three tubes
Experimental: Three EP tubes were prepared, each containing 0.1 mL of saturated n-octanol and 80 μL of ultrapure water. Then, 20 μL (approximately 1 MBq) of the ^177Lu-labeled DB-13, DB-18, and DB-19 compound solutions were added to the respective tubes. After shaking evenly, the tubes were centrifuged at room temperature (2000 r/min, 5 minutes, centrifugation radius of 10 cm). From each tube, 100 μL was taken from both the lipid layer and the aqueous layer, and the radioactivity counts per minute for both phases were measured. The Log P values were calculated, and their mean values were taken as the final result.

[7] = target: hPSMA-biotin (Homo sapiens (Human), UniProt Q04609); assay: Binding kinetics and affinity with PSMA protein by Biacore 8K (Effect Example 1); details: for Kd / kd / kon: 1:1 binding model; for kon: read-out: ka
Experimental: The dissociation constant was determined using the Biacore 8K (GE Healthcare) following the manufacturer's instructions. In brief, PSMA-bio protein, diluted in PBS pH 7.4 with 1 mM TCEP, 0.05% Tween 20, and 2% DMSO buffer, was immobilized on the flow cell of an SA sensor chip. Using PBS pH 7.4, 1 mM TCEP, 0.05% Tween 20, and 2% DMSO as the running buffer, five serial dilutions of the PSMA-targeting candidate molecules were injected into the flow cell at a rate of 30 μL/min, with a binding time of 90 seconds. The buffer flow was maintained for 1800 seconds to allow dissociation. The KD values for the interaction between the candidate small molecules and the PSMA protein were evaluated using Biacore 8K evaluation software 1.0 and a 1:1 binding model.

Chain of PSMA protein (Q04609 whole entry): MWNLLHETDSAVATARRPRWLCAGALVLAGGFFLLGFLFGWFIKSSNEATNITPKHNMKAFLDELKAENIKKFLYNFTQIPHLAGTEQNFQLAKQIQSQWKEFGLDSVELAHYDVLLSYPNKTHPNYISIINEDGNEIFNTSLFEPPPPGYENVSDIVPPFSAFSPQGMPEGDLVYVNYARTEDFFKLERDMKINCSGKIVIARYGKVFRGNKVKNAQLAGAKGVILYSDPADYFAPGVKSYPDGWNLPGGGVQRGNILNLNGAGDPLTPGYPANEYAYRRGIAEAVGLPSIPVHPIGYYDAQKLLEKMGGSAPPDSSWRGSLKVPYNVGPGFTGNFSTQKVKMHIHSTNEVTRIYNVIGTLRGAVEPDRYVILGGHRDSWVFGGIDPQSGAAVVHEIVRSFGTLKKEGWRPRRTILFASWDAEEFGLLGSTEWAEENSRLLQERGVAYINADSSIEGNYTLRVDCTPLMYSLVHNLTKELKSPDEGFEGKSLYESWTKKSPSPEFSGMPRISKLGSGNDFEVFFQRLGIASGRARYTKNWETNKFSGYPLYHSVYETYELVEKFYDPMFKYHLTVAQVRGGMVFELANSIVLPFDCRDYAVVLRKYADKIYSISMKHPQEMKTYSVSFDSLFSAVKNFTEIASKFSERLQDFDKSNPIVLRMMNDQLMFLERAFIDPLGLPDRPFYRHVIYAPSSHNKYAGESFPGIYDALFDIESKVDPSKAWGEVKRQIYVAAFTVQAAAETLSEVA
Chain of hPSMA-biotin (Q04609 whole entry): as above
Chain of PSMA-expressing cells (22Rv1) (Q04609 whole entry): as above

| SMILES | Kd [3] [nM] | Blood uptake [4] [% ID/g] | Kidney uptake [4] [% ID/g] | Liver uptake [4] [% ID/g] | Muscle uptake [4] [% ID/g] | Tumor uptake [4] [% ID/g] | other results |
| --- | --- | --- | --- | --- | --- | --- | --- |
| O=C([O-])CN1CCN(CC(=O)[O-])CCN(CC(=O)NCC2CCC(C(=O)N[C@@H](Cc3ccc4ccccc4c3)C(=O)NCCCC[C@H](NC(=O)N[C@@H](CCC(=O)O)C(=O)O)C(=O)O)CC2)CCN(CC(=O)[O-])CC1.[177Lu+3] (stereo partly drawn) [177Lu-PSMA-617] |  |  |  |  |  |  | T/C ([1]; 0.15 mCi/mouse): 97.41%; Tumor volume, 21st day of group administration ([1]; 0.15 mCi/mouse): 2,616.99 ± 203.91 mm^3; T/C ([1]; 0.45 mCi/mouse): 101.47%; Tumor volume, 21st day of group administration ([1]; 0.45 mCi/mouse): 2,726.19 ± 926.52 mm^3 |
| O=C(O)CC[C@H](NC(=O)N[C@@H](CCCCNC(=O)[C@H](Cc1ccc2ccccc2c1)NC(=O)c1ccc2c(c1)CCN(C(=O)CN1CCN(CC(=O)O)CCN(CC(=O)O)CCN(CC(=O)O)CC1)C2)C(=O)O)C(=O)O [Compound E-3, reference compound] | < 10 | 0.02 | 2.01 | 0.09 | 0.035 | 32.875 | IC50 [2]: 2.06 nM; plasma protein binding ratio (albumin binding ratio) [5]: 86.61%; logP [6]: -3.46 |
| O=C(O)CC[C@H](NC(=O)N[C@@H](CCCCNC(=O)[C@H](Cc1ccc2ccccc2c1)NC(=O)[C@H]1CC[C@H](CNC(=O)c2cc(NC(=O)CN3CCN(CC(=O)O)CCN(CC(=O)O)CCN(CC(=O)O)CC3)cc(C(=O)NC[C@H]3CC[C@H](C(=O)N[C@@H](Cc4ccc5ccccc5c4)C(=O)NCCCC[C@H](NC(=O)N[C@@H](CCC(=O)O)C(=O)O)C(=O)O)CC3)c2)CC1)C(=O)O)C(=O)O [DB-01] | < 10 |  |  |  |  |  | binding affinity compared with PSMA-617 [7]: slightly higher than that of PSMA-617; Kd [7]: 0.12 nM; kd [7]: 2.65e-05 s⁻¹; kon [7]: 222000 M⁻¹ s⁻¹ |
| O=C(O)CC[C@H](NC(=O)N[C@@H](CCCCNC(=O)[C@H](Cc1ccc2ccccc2c1)NC(=O)c1ccc2c(c1)CCN(C(=O)CCC(=O)NCCCC[C@H](NC(=O)CCC(=O)N1CCc3cc(C(=O)N[C@@H](Cc4ccc5ccccc5c4)C(=O)NCCCC[C@H](NC(=O)N[C@@H](CCC(=O)O)C(=O)O)C(=O)O)ccc3C1)C(=O)NCCNC(=O)CN1CCN(CC(=O)O)CCN(CC(=O)O)CCN(CC(=O)O)CC1)C2)C(=O)O)C(=O)O [DB-11] | < 10 | 1.125 | 87.105 | 1.625 | 0.055 | 41.83 | tumor growth inhibition ([1]; high dose 0.45 mCi, effect decreased over time, remained higher than PSMA-617): a certain degree of tumor growth inhibition |
| O=C(O)CC[C@H](NC(=O)NC(CCCCNC(=O)[C@H](Cc1ccc2ccccc2c1)NC(=O)c1ccc2c(c1)CCN(C(=O)c1cc(NC(=O)CN3CCN(CC(=O)O)CCN(CC(=O)O)CCN(CC(=O)O)CC3)cc(C(=O)N3CCc4cc(C(=O)N[C@@H](Cc5ccc6ccccc6c5)C(=O)NCCCC[C@H](NC(=O)N[C@@H](CCC(=O)O)C(=O)O)C(=O)O)ccc4C3)c1)C2)C(=O)O)C(=O)O (stereo partly drawn) [DB-18] | < 10 |  |  |  |  |  | IC50 [2]: 2.58 nM; plasma protein binding ratio (albumin binding ratio) [5]: 70.51%; logP [6]: -1.86 |
| O=C(O)CC[C@H](NC(=O)NC(CCCCNC(=O)[C@H](Cc1ccc2ccccc2c1)NC(=O)c1ccc(C2CCN(C(=O)CNC(=O)c3cc(NC(=O)COCCOCCNC(=O)CN4CCN(CC(=O)O)CCN(CC(=O)O)CCN(CC(=O)O)CC4)cc(C(=O)NCC(=O)N4CCC(c5ccc(C(=O)N[C@@H](Cc6ccc7ccccc7c6)C(=O)NCCCC[C@H](NC(=O)N[C@@H](CCC(=O)O)C(=O)O)C(=O)O)cc5)CC4)c3)CC2)cc1)C(=O)O)C(=O)O (stereo partly drawn) [DB-21] | < 10 | 1.54 | 150.54 | 3.645 | 0.465 | 77.54 |  |
| O=C(O)CC[C@H](NC(=O)N[C@@H](CCCCNC(=O)[C@H](Cc1ccc2ccccc2c1)NC(=O)[C@H]1CC[C@H](CNC(=O)CN2CCN(CC(=O)O)CCN(CC(=O)O)CCN(CC(=O)O)CC2)CC1)C(=O)O)C(=O)O [PSMA-617, reference compound] | < 10 |  |  |  |  |  | Kd [7]: 0.483 nM; kd [7]: 4.88e-05 s⁻¹; kon [7]: 101000 M⁻¹ s⁻¹ |
